Assay results: ChEMBL document CHEMBL6078643, “Palladium-Mediated Bioorthogonal System for Prodrug Activation of N-Benzylbenzamide-Containing Tubulin Polymerization Inhibitors for the Treatment of Solid Tumors” (J Med Chem, 2024)
Calls of active or inactive are those of the source. The rule behind the calls is not given here.

Columns and labels:
HepG2 [1] = assay: Antiproliferative activity against human HepG2 cells assessed as reduction in cell viability incubated for 72 hrs by CCK-8 assay; format: functional, cell-based; settings: HepG2, 72 h
K562 [2] = assay: Antiproliferative activity against human K562 cells assessed as reduction in cell viability incubated for 72 hrs by CCK-8 assay; format: functional, cell-based; settings: K562, 72 h
[3] = Antiproliferative activity against human THLE-2 cells assessed as reduction in cell viability incubated for 72 hrs by CCK-8 assay; format: toxicity, cell-based
H22 = assay: Select factor, ratio of test compound IC50 to 5-fluoro-N-(3-hydroxy-4-methoxybenzyl)-2-morpholinobenzamide IC50 for antiproliferative activity against mouse H22 cells assessed as reduction in cell viability incubated for 72 hrs by CCK-8 assay; format: functional
[4] = Select factor, ratio of test compound IC50 to 5-fluoro-N-(3-hydroxy-4-methoxybenzyl)-2-morpholinobenzamide IC50 for antiproliferative activity against human THLE-2 cells assessed as reduction in cell viability incubated for 72 hrs by CCK-8 assay; format: toxicity, cell-based; settings: read-out: Ratio IC50
HepG2 [5] = assay: Cytotoxicity against human HepG2 cell assessed as parent drug 5-fluoro-N-(3-hydroxy-4-methoxybenzyl)-2-morpholinobenzamide mediated decrease in cell viability at 100 nM in presence of palladium resins incubated for 72 hrs by CCK-8 assay; format: functional, cell-based
K562 [6] = assay: Cytotoxicity against human K562 cells assessed as parent drug 5-fluoro-N-(3-hydroxy-4-methoxybenzyl)-2-morpholinobenzamide mediated decrease in cell viability at 100 nM in presence of palladium resins incubated for 72 hrs by CCK-8 assay; format: functional, cell-based
Tubulin (Homo sapiens) [7] = target: T1, Tubulin (Homo sapiens) (UniProt P68371+Q9H4B7+P0DPH7+P68366+Q13509+Q71U36+P04350+Q3ZCM7+P07437+P68363+Q9BQE3+Q6PEY2+Q13885+Q9BVA1+Q9BUF5); assay: Disruption of microtubule organization in human K562 cells at 80 nM incubated for 72 hrs in presence of palladium resins by DAPI staining based confocal microscopic analysis; format: cell-based
K562 [8] = assay: Induction of cell cycle arrest in human K562 cells assessed as accumulation of cells at S phase at 80 nM incubated for 72 hrs in presence of palladium resins by PI staining based flow cytometric analysis ( Rvb = 14.04 %); format: functional
K562 [9] = assay: Induction of cell cycle arrest in human K562 cells assessed as accumulation of cells at G2 phase at 80 nM incubated for 72 hrs in presence of palladium resins by PI staining based flow cytometric analysis ( Rvb = 8.5 %); format: functional
K562 [10] = assay: Induction of apoptosis in human K562 cells assessed as nucleus fragmentation at 80 nM incubated for 72 hrs in presence of palladium resins by Hoechst 33342 staining based fluorescent microscopic analysis; format: functional, cell-based
K562 [11] = assay: Induction of apoptosis in human K562 cells assessed as viable cells at 80 nM incubated for 72 hrs by Annexin V-APC staining based flow cytometric analysis (reference value: 94.21%); format: functional; settings: read-out: Activity
K562 [12] = assay: Induction of apoptosis in human K562 cells assessed as late apoptotic cells at 80 nM incubated for 72 hrs by Annexin V-APC staining based flow cytometric analysis (reference value: 1.36%); format: functional
K562 [13] = assay: Induction of apoptosis in human K562 cells assessed as necrotic cells at 80 nM incubated for 72 hrs by Annexin V-APC staining based flow cytometric analysis (reference value: 1.65%); format: functional
K562 [14] = assay: Induction of apoptosis in human K562 cells assessed as viable cells at 80 nM incubated for 72 hrs in presence of palladium resins by Annexin V-APC staining based flow cytometric analysis (reference value: 94.21%); format: functional; settings: read-out: Activity
Tubulin (Homo sapiens) [15] = target: T1, Tubulin (Homo sapiens); assay: Disruption of microtubule organization in human K562 cells assessed as appearance of fibrous microtubules at 80 nM incubated for 72 hrs by DAPI staining based confocal microscopic analysis; format: cell-based
K562 [16] = assay: Antiproliferative activity against human K562 cells at 100 nM incubated for 72 hrs in presence of palladium resins by CCK-8 assay; format: functional, cell-based
HepG2 [17] = assay: Antiproliferative activity against human HepG2 cells at 100 nM incubated for 72 hrs in presence of palladium resins by CCK-8 assay; format: functional, cell-based
K562 [18] = assay: Induction of ROS generation in human K562 cells assessed as increase in DCF-positive cells at 80 nM incubated for 72 hrs in presence of palladium resins by DCF-DA staining based flow cytometric analysis (reference value: 7.67%); format: functional
K562 [19] = assay: Induction of ROS generation in human K562 cells assessed as increase in DCF-positive cells incubated for 72 hrs by DCF-DA staining based flow cytometric analysis (reference value: 7.67%); format: functional
HUVEC [20] = assay: Antivascular activity against HUVEC cells assessed as inhibition of cell migration at 80 nM incubated for 24 hrs by phase contrast microscopic analysis; format: functional, cell-based; settings: Homo sapiens
HUVEC [21] = assay: Antivascular activity against HUVEC cells assessed as inhibition of cell migration at 80 nM incubated for 24 hrs in presence of palladium resins by phase contrast microscopic analysis; format: functional, cell-based; settings: Homo sapiens
Tubulin (Homo sapiens) [22] = target: T1, Tubulin (Homo sapiens); assay: Inhibition of tubulin polymerization in human K562 cells assessed as decrease in alpha tubulin expression at 80 nM incubated for 24 hrs in presence of palladium resins by Western blotting analysis; format: cell-based
[23] = target: Bcr/Abl fusion protein (Homo sapiens) (UniProt P00519+P11274); assay: Inhibition of Bcr-Abl in human K562 cells at 80 nM incubated for 24 hrs in presence of palladium resins by Western blotting analysis; format: cell-based
HepG2 [24] = assay: Antitumor activity against human HepG2 cells xenografted in Balb/c mouse assessed as tumor growth inhibition at 20 mg/kg, iv administered daily in presence of palladium resins for 14 days relative to control; format: functional; settings: HepG2, 336 h, time 14 day
[25] = Toxicity in Balb/c mouse xenografted with human HepG2 cells assessed as effect on heart at 20 mg/kg, iv administered daily in presence of palladium resins for 14 days by H and E staining based analysis; format: organism-based; settings: in vivo, 336 h, time 14 day
[26] = Toxicity in Balb/c mouse xenografted with human HepG2 cells assessed as effect on spleen at 20 mg/kg, iv administered daily in presence of palladium resins for 14 days by H and E staining based analysis; format: organism-based; settings: in vivo, 336 h, time 14 day
[27] = Toxicity in Balb/c mouse xenografted with human HepG2 cells assessed as effect on kidney at 20 mg/kg, iv administered daily in presence of palladium resins for 14 days by H and E staining based analysis; format: organism-based; settings: in vivo, 336 h, time 14 day
Tubulin (Homo sapiens) [28] = target: T1, Tubulin (Homo sapiens); assay: In vivo inhibition of tubulin polymerization in human HepG2 cells xenografted in Balb/c mouse assessed as decrease in beta tubulin expression at 20 mg/kg, iv administered daily for 14 days in presence of palladium resins incubated for 24 hrs by Western blot analysis; format: functional, organism-based; settings: time 14.0 day

Sequence of Bcr/Abl fusion protein (Homo sapiens) (P00519 whole entry, looked up, the tested form may be a part): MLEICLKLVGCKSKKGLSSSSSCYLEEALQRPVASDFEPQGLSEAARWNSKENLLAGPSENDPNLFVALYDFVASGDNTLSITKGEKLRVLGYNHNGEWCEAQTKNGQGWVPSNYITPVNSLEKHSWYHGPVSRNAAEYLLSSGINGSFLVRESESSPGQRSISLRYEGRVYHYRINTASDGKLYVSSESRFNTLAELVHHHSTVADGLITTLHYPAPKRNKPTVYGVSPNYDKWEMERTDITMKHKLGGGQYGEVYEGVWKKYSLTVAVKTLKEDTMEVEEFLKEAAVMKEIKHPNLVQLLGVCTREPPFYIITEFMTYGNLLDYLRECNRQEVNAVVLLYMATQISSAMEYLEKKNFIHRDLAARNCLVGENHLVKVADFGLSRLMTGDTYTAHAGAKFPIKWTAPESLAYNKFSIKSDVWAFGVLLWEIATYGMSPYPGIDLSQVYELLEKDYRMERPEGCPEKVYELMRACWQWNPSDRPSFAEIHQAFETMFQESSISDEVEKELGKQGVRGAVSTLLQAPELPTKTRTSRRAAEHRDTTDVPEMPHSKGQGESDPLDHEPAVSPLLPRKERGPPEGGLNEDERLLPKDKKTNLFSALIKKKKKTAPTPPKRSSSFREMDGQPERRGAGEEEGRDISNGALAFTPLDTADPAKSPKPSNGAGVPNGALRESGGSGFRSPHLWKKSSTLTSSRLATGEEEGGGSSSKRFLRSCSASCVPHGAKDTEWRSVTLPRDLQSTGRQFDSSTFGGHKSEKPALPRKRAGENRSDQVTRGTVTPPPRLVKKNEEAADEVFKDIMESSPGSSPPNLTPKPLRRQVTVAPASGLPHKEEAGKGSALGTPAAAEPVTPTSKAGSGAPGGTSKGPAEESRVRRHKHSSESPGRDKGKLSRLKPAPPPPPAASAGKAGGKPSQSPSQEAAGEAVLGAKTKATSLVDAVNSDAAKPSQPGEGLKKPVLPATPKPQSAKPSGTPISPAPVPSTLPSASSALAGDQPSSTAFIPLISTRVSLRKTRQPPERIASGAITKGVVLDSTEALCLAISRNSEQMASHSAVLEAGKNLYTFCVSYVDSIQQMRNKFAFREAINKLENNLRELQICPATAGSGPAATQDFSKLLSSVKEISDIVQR
Sequence of Bcr/Abl fusion protein (Homo sapiens) (P11274 whole entry, looked up, the tested form may be a part): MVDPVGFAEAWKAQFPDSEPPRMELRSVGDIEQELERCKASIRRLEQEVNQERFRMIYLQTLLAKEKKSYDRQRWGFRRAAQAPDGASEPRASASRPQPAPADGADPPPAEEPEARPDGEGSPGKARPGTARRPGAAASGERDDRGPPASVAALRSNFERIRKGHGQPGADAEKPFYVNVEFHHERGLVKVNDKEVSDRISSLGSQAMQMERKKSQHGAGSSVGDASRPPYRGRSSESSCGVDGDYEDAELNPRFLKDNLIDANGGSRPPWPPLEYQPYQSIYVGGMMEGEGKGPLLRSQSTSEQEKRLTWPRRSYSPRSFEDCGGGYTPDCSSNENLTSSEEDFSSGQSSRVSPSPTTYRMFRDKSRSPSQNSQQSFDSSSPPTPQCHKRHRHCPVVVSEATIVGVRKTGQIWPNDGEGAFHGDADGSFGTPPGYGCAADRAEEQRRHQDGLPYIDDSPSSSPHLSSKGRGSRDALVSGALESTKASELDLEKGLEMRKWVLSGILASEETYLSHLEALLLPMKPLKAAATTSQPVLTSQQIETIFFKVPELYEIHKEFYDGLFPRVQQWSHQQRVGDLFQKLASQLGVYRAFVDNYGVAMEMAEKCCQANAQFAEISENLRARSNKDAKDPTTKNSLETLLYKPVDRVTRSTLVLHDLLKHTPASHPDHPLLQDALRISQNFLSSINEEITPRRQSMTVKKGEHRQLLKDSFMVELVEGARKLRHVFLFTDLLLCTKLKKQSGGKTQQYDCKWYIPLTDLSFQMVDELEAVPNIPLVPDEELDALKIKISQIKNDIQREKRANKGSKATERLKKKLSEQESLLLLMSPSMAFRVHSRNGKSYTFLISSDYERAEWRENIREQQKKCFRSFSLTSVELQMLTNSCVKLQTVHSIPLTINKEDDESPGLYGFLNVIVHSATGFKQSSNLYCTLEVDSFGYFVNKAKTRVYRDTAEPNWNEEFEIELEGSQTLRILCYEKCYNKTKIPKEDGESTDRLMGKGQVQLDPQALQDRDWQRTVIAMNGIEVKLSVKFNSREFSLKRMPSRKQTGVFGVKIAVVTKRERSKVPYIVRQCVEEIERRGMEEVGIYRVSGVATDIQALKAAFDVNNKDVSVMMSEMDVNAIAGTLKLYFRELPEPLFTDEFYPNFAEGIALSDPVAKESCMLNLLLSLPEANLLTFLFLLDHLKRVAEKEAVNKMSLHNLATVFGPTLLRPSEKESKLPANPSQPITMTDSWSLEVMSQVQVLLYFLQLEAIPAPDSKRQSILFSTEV

Work on `C#CCOc1cc(CNC(=O)c2cc(F)ccc2N2CCOCC2)ccc1OC` yielded an IC50 (HepG2 [1]) of 1310 nM, an IC50 (K562 [2]) of 1100 nM and an IC50 at 72 h [3] of 1420 nM. The “Ratio IC50” value (H22) was 39.6, the selectivity ratio at 72 h [4] was 66.2 and the Activity (HepG2 [5]) was “Active”. The Activity (K562 [6]) was “Active”, the Activity (Tubulin (Homo sapiens) [7]) was “Active” and the Activity (K562 [8]) was 29.11%. The Activity (K562 [9]) was 12.3%, the Activity (K562 [10]) was “Active” and the viability at 0.08 µM (K562 [11]) was 92.6%. For the same molecule, the Activity (K562 [12]) was 1.96%, the Activity (K562 [13]) was 1.26% and the viability at 0.08 µM (K562 [14]) was 45.4%. For the same molecule, the Activity (Tubulin (Homo sapiens) [15]) was “Active”, the Activity (K562 [16]) was “Active” and the Activity (HepG2 [17]) was “Active”. The Activity (K562 [18]) was 54.85%, the Activity (K562 [19]) was 8.22% and the Activity (HUVEC [20]) was “inactive”. For the same molecule, the Activity (HUVEC [21]) was “Active”, the inhibition (Tubulin (Homo sapiens) [22]) was “Active” and the inhibition [23] was “Active”. The inhibition in vivo at 20 mg/kg (HepG2 [24]) was 63.2%, the Activity [25] was “Non-toxic” and the Activity [26] was “Non-toxic”. For the same molecule, the Activity [27] was “Non-toxic” and the Activity (Tubulin (Homo sapiens) [28]) was “Active”.
